Assay results published in patent US6207397A, “In vitro fluorescence polarization assay” (ARIAD Pharmaceuticals, Inc., priority 1997, dated 2001).
Like-named read-outs stand apart in the source and are kept apart here. One block for each molecule: values may come before it. Square brackets hold non-standard residues; d marks the D form. Peptide text beside a SMILES is read from it. * marks the point of attachment. 5FAM = O=C1OC2(c3ccc(O)cc3Oc3cc(O)ccc32)c2ccc(C(=O)*)cc21; pY = N[C@@H](Cc1ccc(OP(=O)(O)O)cc1)C(=O)O

Key:
[1] = molecular target: Src SH2-SH3 (Homo sapiens, UniProt P12931); assay: Fluorescence polarization saturation experiment, Src SH2-SH3 double binding assay; conditions: saturation with Src-SH2-SH3; SH2-SH3 probe
Text: Proteins such as Src contain both an SH2 and an SH3 domain. Certain proteins can bind to such SH2- SH3 proteins not through SH2 or SH3 domains alone, but through both domains at once. One example is the protein, p130CAS, which is thought to bind Src via both SH2 and SH3 domains. The SH3 and SH2 binding sequences of p130CAS have been identified by deletional and site-specific mutagenesis (Nakamoto et. al., JBC 271, 8959-8965, 1996). […] Fluorescent probes for FP assays were designed based on these sequences. Such probes can be used in assays that allow simultaneous screening for both SH2-specific and SH3-specific inhibitors. One such probe ("FPC130") is the following:
This is the native sequence from p130CAS (733-767). Derivative probes based on the foregoing but using different component SH2 and/or SH3 sequences may be used to vary the affinity or protein specificity, and especially to increase the overall affinity of probe for the desired target protein.

[2] = molecular target: T1, Src-SH2 (Homo sapiens, UniProt P12931); assay: Fluorescence polarization saturation experiment with Src-SH2 using an alternate (BODIPY-TRX) probe; format: binding; conditions: filters 591/635
T1 construct: Human Src encoding residues 145-251; made in house; host or cells: E. coli BL21 (DE3), pT7 expression vector
Text: A competition assay was developed for Src-SH2 (applicable to any fragment of Src containing the SH2 domain) with a non-fluorescein fluorophore. The fluorophore is one of a family of fluorescent molecules containing the core fluorophore, 4,4-difluoro-4 bora-3a,4a-diaza-s-indacene (commerciallyavailable from Molecular Probes Inc.). The structure of the fluorophore-peptide probe is: [drawing 2]
Specifically, the excitation/emission filters used with the above are 591/635, compared to 485/530 for fluorescein.
(§1) Synthesis of the peptide portion of the probe was as described in Example 1, with production of the peptide NH2-pYEEI. The probe was further synthesized by coupling the free amine peptide, NH2-pYEEI, with the succinimidyl ester of the BODIPY-TRX probe in a 66% DMSO buffer (34% 0.1 MNaBicarbonate). Completion of reaction was monitored by silica gel TLC (4:1:1, butanol, H2O , Acetic Acid solvent system), and was done by 24 hrs.
The only difference was the use of an alternate set of filters for the red probe, as described in A above.

[3] = Hydrophobicity of the BODIPY-TRX peptide probe; format: physicochemical; conditions: resultant peptide
Text: as §1

[4] = molecular target: T1, Src-SH2; assay: Fluorescence polarization Src-SH2 competition assay with peptides; format: binding; conditions: for IC50: TABLE 1, fixed probe and Src-SH2, increasing peptide, read-out: Peptide competitive IC50
Description: (§2) All polarization methods were performed on an FPM2 96-well plate reader (Jolley), with standard cutoff filters (excitation=485 nm; emission=530 nm). Saturation experiments were used to explore various conditions for the assay, with the aim of maximizing the protein and assay stability, and of determining Kd s of the protein/probe interaction.
For competition experiments, fixed concentrations of probe and protein were used, and increasing concentrations of peptides were added.
All buffer components were low-fluorescence grade (Panvera Corporation). Standard (STD) buffer contains 20 mM phosphate (pH 7.4), 100 mM NaCl, 2 mM DTT, 1 mM EDTA, and 100 ug/ml BGG. Standard buffer is prepared by preparing NaCl, EDTA and phosphate stocks in Millipore water or the cleanest available water supply. The buffer is brought to volume in the same clean water.
The SRC protein is used at a concentration of 0.75 uM final. An example of SRC stock solution is 416.6 uM in STD buffer. […] It is desirable to make a 2× stock of this. For assays where the tighter-binding pYpYpYIE probe is used, the Src protein concentration can be reduced to 150 nM. In general, the concentration of the protein can be adjusted to match the affinity of the probe.
Fluor-GpYEEI is used as the probe at a concentration of 20 nM final. The probe stock sent is 10 uM in STD buffer.

[5] = molecular target: GRB2 SH2 (Homo sapiens, UniProt P62993); conditions: saturation with GRB2 SH2 protein
Chain of GRB2 SH2 (P62993 55-152): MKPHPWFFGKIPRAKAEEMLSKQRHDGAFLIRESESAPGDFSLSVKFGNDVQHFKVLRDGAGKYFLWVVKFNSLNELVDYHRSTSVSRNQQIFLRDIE
Description: The human GRB2 protein tested in the assay comprised amino acid residues 55-152 of huGRB2 [see Cell 70: 431-442 (1992)], although longer sequences encompassing the SH2 domain may also be used. Production and purification of the protein domain was similar to methods described above, especially the use of a phosphotyrosine column to purify the GRB2 SH2domain.
As in previous examples, saturation experiments were performed with fixed concentrations of probe and increasing concentrations of Grb-2-SH2.
The following Grb-2-specific SH2 probe ("FPgb2") was synthesized using the techniques described in Example 1 [drawing 1] 2, Fluor-GpYVNV-NH2

[6] = molecular target: T2, Src-SH2 domain (Homo sapiens, UniProt P12931); assay: Fluorescence polarization saturation experiment of probe FMT1 with Src-SH2; format: binding
T2 construct: Human Src encoding residues 145-251; made in house; host or cells: E. coli BL21 (DE3), pT7 expression vector
Description: Human Src encoding residues 145-251 [Tanaka, A. and Fujita, D. J., Mol. Cell. Biol. 6:3900-3909 (1986)] was cloned into the pT7 expression vector and transformed into E. coli BL21 (DE3). Protein was produced from the growth and induction of 27 liters of culture in minimal medium. In a typical preparation, the culture was grown at 37° C. to an optical density (OD) of 1.0 at 595 nm. The culture was induced with 1 mM isopropyl--D-thiogalactopyranoside (IPTG) and the temperature was dropped to 25° C. The culture was harvested 21 hours later.
as §2
For saturation experiments, fixed concentrations of probe were used, and increasing concentrations of Src-SH2 were added. This is the reverse of the way such assays are commonly done with radioactive ligands.
A saturation experiment was conducted in which the Src-SH2 domain is varied in concentration from a high of 40 uM to a low of 39 nM. The fluorescent probe FMT1 (FIG. 1) was kept at a fixed concentration of 20 nM. Amino acid analysis was used to quantitate both the protein and probe concentrations. The results are illustrated in the saturation curve and Scatchard analysis of FIGS. 2A and 2B, respectively from this experiment.

[7] = molecular target: T3, Src SH3 (Homo sapiens, UniProt P12931); assay: Fluorescence polarization saturation experiment, Src SH3 binding assay with Src-SH2-SH3 protein; conditions: SH3 probe
T3 construct: SH3-specific probe
Text: Biol. 7(5): 1978-1983 (1987)], and a probe specific for the Src SH3 domain (in place of the Src-specific SH2 probe). Note that larger or smaller Src proteins may be used, so long as they include the Src SH3 domain (with or without the Src SH2 domain). Production and purification of the protein were essentially as described above, e.g., see Example 3. The following details are provided:
The following Src SH3 specific probe ("FPSH3") was synthesized using the techniques described in Example 1: […]

Molecule: Fluor-RPLPSPPKFTSQDSPDGQYENSEGGWMEDpYDYVHL [FPC130]
Kd and total mP difference on protein binding [1]: appropriate Kd and total mP difference on protein binding

Molecule: CC[C@H](C)[C@H](NC(=O)[C@H](CCC(=O)O)NC(=O)[C@H](CCC(=O)O)NC(=O)[C@H](Cc1ccc(OP(=O)(O)O)cc1)NC(=O)CCCCCNC(=O)CC1=C(C)C2=Cc3ccc(-c4ccc(OC)cc4)n3[B-](F)(F)[N+]2=C1C)C(N)=O [BODIPY-TRX probe]
Kd and total mP difference on protein binding [2]: adequate Kd and total mP difference on protein binding
Hydrophobicity [3]: quite hydrophobic

IC50 [4]: 100000 nM
Molecule: Ac-pYTGL

IC50 [4]: 700000 nM
Molecule: Ac-pYGGL

Molecule: CC(C)[C@H](NC(=O)[C@H](CC(N)=O)NC(=O)[C@@H](NC(=O)[C@H](Cc1ccc(OP(=O)(O)O)cc1)NC(=O)CNC(=O)c1ccc2c(c1)C(=O)OC21c2ccc(O)cc2Oc2cc(O)ccc21)C(C)C)C(N)=O [FPgb2, Fluor-GpYVNV-NH2] (5FAM-G[pY]VNV-NH2)
Kd and total mP difference on protein binding [5]: appropriate Kd and total mP difference on protein binding

Molecule: CC[C@H](C)[C@H](NC(=O)[C@H](CCC(=O)O)NC(=O)[C@H](CCC(=O)O)NC(=O)[C@H](Cc1ccc(OP(=O)(O)O)cc1)NC(=O)CNC(=O)c1ccc2c(c1)C(=O)OC21c2ccc(O)cc2Oc2cc(O)ccc21)C(N)=O [FMT1, fluorescein-G-pYEEI-NH2] (5FAM-G[pY]EEI-NH2)
Kd ([6]; FIG. 2A, error of 0.008, FMT1 fixed at 20 nM, Src-SH2 39 nM to 40 uM, read-out: Calculated Kd (non-linear least squares fit of saturation experiment)): 240 nM
Kd ([6]; FIG. 2B, R value 0.992 for the linear fit, read-out: Calculated Kd (Scatchard analysis)): 260 nM
Binding mode in saturation experiment ([6]; FIGS. 2A and 2B): saturable binding to a single site is observed
Kd ([6]; standard buffer conditions, read-out: Kd towards Src-SH2): ~300 nM

IC50 [4]: 1500 nM
Molecule: Ac-pYpYEEI

Molecule: CC(C)C[C@H](NC(=O)[C@@H]1CCCN1C(=O)c1ccc2c(c1)C(=O)OC21c2ccc(O)cc2Oc2cc(O)ccc21)C(=O)N[C@@H](C)C(=O)N[C@@H](CCCNC(=N)N)C(=O)N[C@@H](CCCNC(=N)N)C(=O)N1CCC[C@H]1C(=O)N[C@@H](CC(C)C)C(=O)N1CCC[C@H]1C(=O)N1CCC[C@H]1C(=O)N[C@@H](CC(C)C)C(=O)N1CCC[C@H]1C(N)=O [FPSH3] (5FAM-PLARRPLPPLP-NH2)
Kd and total mP difference on protein binding [7]: appropriate Kd and total mP difference on protein binding

Molecule: CC[C@H](C)[C@H](NC(=O)[C@H](Cc1ccc(OP(=O)(O)O)cc1)NC(=O)[C@H](Cc1ccc(OP(=O)(O)O)cc1)NC(=O)[C@H](Cc1ccc(OP(=O)(O)O)cc1)NC(=O)c1ccc2c(c1)C(=O)OC21c2ccc(O)cc2Oc2cc(O)ccc21)C(=O)N[C@@H](CCC(=O)O)C(N)=O [pYpYpYIE probe, fluorescein-pYpYpYIE-NH2] (5FAM-[pY][pY][pY]IE-NH2)
Relative binding of probe to Src ([4]; probe allowing Src protein reduced to 150 nM): tighter-binding

IC50 [4]: 500 nM
Molecule: Ac-pYpYpYIE
